Counter-ions that a name gives are not always drawn. Bounds are passed on as bounds.

From patent publication US7211572B2 (Japan Tobacco Inc., priority 2003, dated 2007) come the findings set out here.

The assay concerns the target T1, HIV integrase (Human immunodeficiency virus type 1 group M subtype B, UniProt P12497, F1332H).
T1 construct: HIV integrase full length gene; made in house; host or cells: Escherichia coli BL21(DE3), plasmid pET21a-INH
Put plainly: Determination of enzyme (HIV integrase) inhibitory activity. The assay is classed as biochemical. As to conditions: recombinant HIV integrase (F185H), strand transfer ELISA, absorbance at 450 nm. From the text:
The following explains evaluation methods of the HIV integrase inhibitory activity of the compound of the present invention.
(i) Construction of Recombinant Integrase Gene Expression System
The 185th phenylalanine of HIV integrase full length gene (J. Virol., 67, 425–437 (1993)) was substituted by histidine and inserted into the restriction enzyme NdeI and XhoI sites of plasmid pET21a(+) (Novagen), whereby an integrase expression vector pET21a-INH was constructed.
(ii) Production and Purification of Integrase Protein
Escherichia coli recombinant BL21(DE3) transformed with plasmid pET21a-INH obtained in (i) was shake cultured at 37° C. in a liquid medium containing ampicillin. When the culture reached the logarithmic growth phase, isopropyl-β-D-thiogalactopyranoside was added to promote expression of integrase gene. The culture was continued for 3 hr to promote accumulation of the integrase protein. The recombinant E. coli was collected in pellets by centrifugal separation and preserved at −80° C.
The E. coli was suspended in Lysis buffer (20 mM HEPES (pH 7.5), 5 mM DTT, 10 mM CHAPS, 10% glycerol) containing 1M sodium chloride and subjected to repeat pressurization and depressurization for rupture, and centrifugal separation at 4° C., 40,000×g, 60 min to recover a water-soluble fraction (supernatant). This was diluted 10-fold with Lysis buffer free of sodium chloride, mixed with SP-Sepharose (Pharmacia Corporation) and stirred at 4° C. for 30 min to allow adsorption of integrase protein to the resin. The resin was washed with Lysis buffer containing 100 mM sodium chloride and the integrase protein was eluted with Lysis buffer containing 1M sodium chloride.
The eluted integrase protein solution was applied to a Superdex 75 (Pharmacia Corporation) column for gel filtration. The protein was eluted with Lysis buffer containing 1M sodium chloride.
The obtained fractions of the integrase protein were collected and preserved at −80° C.
(iii) Preparation of DNA Solution
The following DNA synthesized by Greiner was dissolved in TE buffer (10 mM Tris-hydrochloric acid (pH 8.0), 1 mM EDTA) and mixed with donor DNA, target DNA, and each complementary strand (+ and − strands) to 1 μM. The mixture was heated at 95° C. for 5 min, 80° C. for 10 min, 70° C. for 10 min, 60° C. for 10 min, 50° C. for 10 min and 40° C. for 10 min and preserved at 25° C. to give a double stranded DNA, which was used for the test.
Donor DNA (− strand having biotin attached to the 5′ terminal)
(iv) Determination of Enzyme (HIV Integrase) Inhibitory Activity
The donor DNA was diluted with TE buffer to 10 nM, of which 50 μl was added to each well of streptavidin-coated microtiter plate (Roche) and allowed to adsorb at 37° C. for 60 min. The DNA was washed with phosphate buffer (Dulbecco PBS, Sanko Junyaku Co., Ltd.) containing 0.1% Tween 20 and phosphate buffer. Then, a reaction mixture (70 μl) having the following composition, a test substance (10 μl) diluted with the reaction mixture and 100 μg/ml integrase protein (10 μl) were added to each well and reacted at 37° C. for 60 min.
Composition of the reaction mixture: 30 mM MOPS (3-morpholinopropanesulfonic acid), 5 mM magnesium chloride, 3 mM DTT (dithiothreitol), 0.1 mg/ml BSA (bovine serum albumin), 5% glycerol, 10% DMSO (dimethyl sulfoxide), 0.01% Tween 20.
Then, 50 nM target DNA (10 μl) was added, reacted at 37° C. for 10 min and washed with phosphate buffer containing 0.1% Tween 20 to stop the reaction.
Then, 100 mU/ml peroxidase labeled anti-digoxigenin antibody solution (Roche, 100 μl) was added, and the mixture was reacted at 30° C. for 60 min, followed by washing with phosphate buffer containing 0.1% Tween 20.
A peroxidase color solution (Bio Rad, 100 μl) was added and allowed to react at room temperature for 4 min. The color reaction was stopped by adding 1N sulfuric acid (100 μl). The absorbance at 450 nm was measured. […]
`O=C1c2c(O)c(=O)ccn2CCN1Cc1ccccc1` [Example 44, 2-benzyl-9-hydroxy-3,4-dihydro-2H-pyrido[1,2-a]pyrazine-1,8-dione]: the IC50 is 100 to 1000 nM.
For `CC(C)Cc1cn(Cc2ccc(Cl)c(Cl)c2)c(=O)c2c(O)c(=O)ccn12` [Example 87, 2-(3,4-dichlorobenzyl)-9-hydroxy-4-isobutyl-2H-pyrido[1,2-a]pyrazine-1,8-dione], the IC50 is below 10 nM.
Take `O=C1c2c(O)c(=O)c(Br)cn2CC(O)N1Cc1cccc(Cl)c1` (centres unmarked) [Example 110, 7-bromo-2-(3-chlorobenzyl)-3,9-dihydroxy-3,4-dihydro-2H-pyrido[1,2-a]pyrazine-1,8-dione hydrochloride]: the IC50 was in the range of 100 to 1000 nM.
In the case of `CN(C)C(=O)c1cn2c(c(O)c1=O)C(=O)N(Cc1cccc(Cl)c1)CC2` [Example 220, N,N-dimethyl-2-(3-chlorobenzyl)-9-hydroxy-1,8-dioxo-1,3,4,8-tetrahydro-2H-pyrido[1,2-a]pyrazine-7-carboxamide] it was 10 to 100 nM; in that of `CS(=O)(=O)Nc1cn2ccn(Cc3ccc(F)cc3)c(=O)c2c(O)c1=O` [Example 305, N-[2-(4-fluorobenzyl)-9-hydroxy-1,8-dioxo-1,8-dihydro-2H-pyrido[1,2-a]pyrazin-7-yl]methanesulfonamide], below 10 nM; in that of `COC(=O)c1cc(=O)c(O)c2n1CCN(Cc1ccc(Cl)c(Cl)c1)C2=O` [Example 34, methyl 2-(3,4-dichlorobenzyl)-9-hydroxy-1,8-dioxo-1,3,4,8-tetrahydro-2H-pyrido[1,2-a]pyrazine-6-carboxylate], 10 to 100 nM.
In the case of `O=C(NCCF)c1cn2ccn(Cc3cccc(Cl)c3)c(=O)c2c(O)c1=O` [Example 233, N-(2-fluoroethyl)-2-(3-chlorobenzyl)-9-hydroxy-1,8-dioxo-1,8-dihydro-2H-pyrido[1,2-a]pyrazine-7-carboxamide] it was below 10 nM.
As for `CN(C)C(=O)c1cn2ccn(Cc3cccc(Cl)c3)c(=O)c2c(O)c1=O` [Example 153, N,N-dimethyl-2-(3-chlorobenzyl)-9-hydroxy-1,8-dioxo-1,8-dihydro-2H-pyrido[1,2-a]pyrazine-7-carboxamide], the figure is 10 to 100 nM; as for `CC(C)c1cn(Cc2ccc(F)c(Cl)c2)c(=O)c2c(O)c(=O)ccn12` [Example 92, 2-(3-chloro-4-fluorobenzyl)-9-hydroxy-4-isopropyl-2H-pyrido[1,2-a]pyrazine-1,8-dione hydrochloride], below 10 nM.
With `CNC(=O)c1cn2ccn(Cc3cccc(Cl)c3)c(=O)c2c(O)c1=O` [Example 155, N-methyl-2-(3-chlorobenzyl)-9-hydroxy-1,8-dioxo-1,8-dihydro-2H-pyrido[1,2-a]pyrazine-7-carboxamide], the IC50 was below 10 nM.
Turning to `O=Cc1cc(=O)c(O)c2n1CCN(Cc1ccc(Cl)c(Cl)c1)C2=O` [Example 48, 2-(3,4-dichlorobenzyl)-9-hydroxy-1,8-dioxo-1,3,4,8-tetrahydro-2H-pyrido[1,2-a]pyrazine-6-carbaldehyde], the IC50 lay within 10 to 100 nM.
As for `CCc1cn(Cc2ccc(Cl)c(Cl)c2)c(=O)c2c(O)c(=O)ccn12` [Example 85, 2-(3,4-dichlorobenzyl)-4-ethyl-9-hydroxy-2H-pyrido[1,2-a]pyrazine-1,8-dione], the IC50 lay within 10 to 100 nM.
As for `COc1cc(Cl)cc(Cn2ccn3ccc(=O)c(O)c3c2=O)c1` [Example 212, 2-(3-chloro-5-methoxybenzyl)-9-hydroxy-2H-pyrido[1,2-a]pyrazine-1,8-dione hydrochloride], the figure is 10 to 100 nM.
Consider `CC(C)NC(=O)c1cn2ccn(Cc3cccc(Cl)c3)c(=O)c2c(O)c1=O` [Example 154, 2-(3-chlorobenzyl)-9-hydroxy-1,8-dioxo-1,8-dihydro-2H-pyrido[1,2-a]pyrazine-7-carboxylic acid isopropylamide], for which the half-inhibitory concentration (IC50) lay within 10 to 100 nM.
With `O=C1c2c(O)c(=O)c(-c3ccncn3)cn2CCN1Cc1ccc(Cl)cc1` [Example 393, 2-(4-chlorobenzyl)-9-hydroxy-7-(pyrimidin-4-yl)-3,4-dihydro-2H-pyrido[1,2-a]pyrazine-1,8-dione hydrochloride], the IC50 lay in the range of 10 to 100 nM.
As for `O=C1c2c(O)c(=O)ccn2CCN1Cc1cccc(Cl)c1` [Example 43, 2-(3-chlorobenzyl)-9-hydroxy-3,4-dihydro-2H-pyrido[1,2-a]pyrazine-1,8-dione], the figure is 10 to 100 nM; as for `COC(=O)c1cn2ccn(Cc3cccc(Cl)c3)c(=O)c2c(O)c1=O` [Example 147, methyl 2-(3-chlorobenzyl)-9-hydroxy-1,8-dioxo-1,8-dihydro-2H-pyrido[1,2-a]pyrazine-7-carboxylate hydrochloride], 10 to 100 nM.
As for `O=c1c(-c2ccncn2)cn2ccn(Cc3ccc(F)cc3)c(=O)c2c1O` [Example 347, 2-(4-fluorobenzyl)-9-hydroxy-7-(pyrimidin-4-yl)-2H-pyrido[1,2-a]pyrazine-1,8-dione], the figure is below 10 nM; as for `CN(C)C(=O)c1cn2ccn(Cc3ccc(F)c(Cl)c3)c(=O)c2c(O)c1=O` [Example 208, N,N-dimethyl-2-(3-chloro-4-fluorobenzyl)-9-hydroxy-1,8-dioxo-1,8-dihydro-2H-pyrido[1,2-a]pyrazine-7-carboxamide], below 10 nM; as for `NC(=O)c1cc(=O)c(O)c2n1CCN(Cc1ccc(Cl)c(Cl)c1)C2=O` [Example 55, 2-(3,4-dichlorobenzyl)-9-hydroxy-1,8-dioxo-1,3,4,8-tetrahydro-2H-pyrido[1,2-a]pyrazine-6-carboxamide], 10 to 100 nM.
Regarding `CN(Cc1ccccc1)C(=O)c1cn2ccn(Cc3cccc(Cl)c3)c(=O)c2c(O)c1=O` [Example 234, N-benzyl-N-methyl-2-(3-chlorobenzyl)-9-hydroxy-1,8-dioxo-1,8-dihydro-2H-pyrido[1,2-a]pyrazine-7-carboxamide], the IC50 was below 10 nM.
In the case of `CN(C)C(=O)Cc1cn2ccn(Cc3cccc(Cl)c3)c(=O)c2c(O)c1=O` [Example 190, 2-[2-(3-chlorobenzyl)-9-hydroxy-1,8-dioxo-1,8-dihydro-2H-pyrido[1,2-a]pyrazin-7-yl]-N,N-dimethylacetamide], the IC50 is 10 to 100 nM.
For `CN(C)C(=O)CNC(=O)c1cn2ccn(Cc3cccc(Cl)c3)c(=O)c2c(O)c1=O` [Example 194, N-dimethylcarbamoylmethyl-2-(3-chlorobenzyl)-9-hydroxy-1,8-dioxo-1,8-dihydro-2H-pyrido[1,2-a]pyrazine-7-carboxamide], the IC50 lay in the range of 10 to 100 nM.
As for `O=c1c(Sc2ccccc2)cn2ccn(Cc3cccc(Cl)c3)c(=O)c2c1O` [Example 235, 2-(3-chlorobenzyl)-9-hydroxy-7-phenylsulfanyl-2H-pyrido [1,2-a]pyrazine-1,8-dione], the IC50 fell in the range of 10 to 100 nM.
As for `CC(O)c1cc(=O)c(O)c2n1CCN(Cc1ccc(Cl)c(Cl)c1)C2=O` (centres unmarked) [Example 40, 2-(3,4-dichlorobenzyl)-9-hydroxy-6-(1-hydroxyethyl)-3,4-dihydro-2H-pyrido[1,2-a]pyrazine-1,8-dione], the figure is 10 to 100 nM; as for `O=C1c2c(O)c(=O)c(-c3cccnn3)cn2CCN1Cc1cccc(Cl)c1` [Example 290, 2-(3-chlorobenzyl)-9-hydroxy-7-(pyridazin-3-yl)-3,4-dihydro-2H-pyrido[1,2-a]pyrazine-1,8-dione hydrochloride], 10 to 100 nM.
